From patent US6310091A, “Fungicidal saponin, CAY-1, and isolation thereof from Capsium species fruit” (The United States of America as represented by the …, priority 2000, dated 2001)
“And” between values parts separate entries of the source, which are not always exact repeats. Equal values may be shown once. Read-outs that look alike come from different tables or passages of the source.

Test system: Aspergillus flavus
Experiment: Time course study against germinating conidia of A. flavus
Format: cell-based
Conditions: for activity at 2 µM / activity at 3 µM / activity at 4 µM / activity at 5 µM / activity at 7.5 µM / activity at 10 µM: read-out: Percent of Mean Control
Procedure: 1. Filamentous fungi. Filamentous fungi used in bioassays included Aspergillus flavus, A. fumigatus, A. niger, A. parasiticus and Fusarium oxysporum. The fungicidal properties of CAY-1 for the nongerminated and germinating conidia of these fungi were determined separately as described by De Lucca et al. [Med. Mycol., 36:291-298 (1998)] and De Lucca et al. [Antimicrob. Agents Chemother. 43:371-373 (1999)]. […] Two separate experiments were conducted in each medium (n=8 per medium).
A suspension of the aforementioned fungi were prepared separately in the appropriate medium. Conidia (10^4 conidia/ml) were used immediately for the nongerminated conidial assays while conidia (10^5 conidia/ml) were incubated for 7.5 hours at 30° C. to obtain germinating conidia. Serial dilutions of CAY-1 were prepared in the appropriate medium (totaling 225 μl) to which was added 25 μl of the conidial suspensions. The control consisted of 225 μl of medium and 25 μl of the conidial suspension. After mixing, the samples were incubated for 30 min (30° C.). Samples were then spread on potato dextrose agar plates which were incubated at 30° C. for 24 hours. Colonies were then enumerated.
4. Time course study. The effect of time and concentration on the activity of CAY-1 was determined against the germinating conidia of A. flavus in 1% (w/v) PBD. Bioassays were performed twice as described above (n=8).
Statistical analyses. ANOVA analyses on ranks for nonparametric data were performed for the bioassays described in this example.

CC1CCC2(OC1)OC1CC3C4CCC5CC(OC6OC(CO)C(OC7OC(CO)C(O)C(OC8OC(CO)C(O)C(OC9OC(CO)C(O)C(O)C9O)C8O)C7OC7OC(CO)C(O)C(O)C7O)C(O)C6O)C(O)CC5(C)C4CCC3(C)C1C2C (centres unmarked) [CAY-1]
Mean No. of Colonies (10.0 min, 1% PDB, 3.0 μM): 110.8
Mean No. of Colonies (10.0 min, 1% PDB, 4.0 μM): 119.3
Mean No. of Colonies (10.0 min, 1% PDB, 5.0 μM): 84.3
Mean No. of Colonies (10.0 min, 1% PDB, 7.5 μM): 32.8
Mean No. of Colonies (10.0 min, 1% PDB, 10.0 μM): 24.9
Mean No. of Colonies (15 min, 1% PDB, 2.0 μM): 126.0
Mean No. of Colonies (15 min, 1% PDB, 3.0 μM): 131.9
Mean No. of Colonies (15 min, 1% PDB, 4.0 μM): 109.1
Mean No. of Colonies (15 min, 1% PDB, 5.0 μM): 77.6
Mean No. of Colonies (15 min, 1% PDB, 7.5 μM): 28.1
Mean No. of Colonies (15 min, 1% PDB, 10.0 μM): 4.4
Mean No. of Colonies (20 min, 1% PDB, 2.0 μM): 227.4
Mean No. of Colonies (20 min, 1% PDB, 3.0 μM): 200.0
Mean No. of Colonies (20 min, 1% PDB, 4.0 μM): 156.4
Mean No. of Colonies (20 min, 1% PDB, 5.0 μM): 95.5
Mean No. of Colonies (20 min, 1% PDB, 7.5 μM): 19.8
Mean No. of Colonies (20 min, 1% PDB, 10.0 μM): 7.6
Mean No. of Colonies (30 min, 1% PDB, 2.0 μM): 139.8
Mean No. of Colonies (30 min, 1% PDB, 3.0 μM): 115.4
Mean No. of Colonies (30 min, 1% PDB, 4.0 μM): 84.1
Mean No. of Colonies (30 min, 1% PDB, 5.0 μM): 54.2
Mean No. of Colonies (30 min, 1% PDB, 7.5 μM): 17.1
Mean No. of Colonies (30 min, 1% PDB, 10.0 μM): 13.1
activity at 2 µM (Aspergillus flavus, 2.5 min, 1% PDB, 2.0 μM): 110%
activity at 3 µM (Aspergillus flavus, 2.5 min, 1% PDB, 3.0 μM): 104%
activity at 4 µM (Aspergillus flavus, 2.5 min, 1% PDB, 4.0 μM): 102%
activity at 5 µM (Aspergillus flavus, 2.5 min, 1% PDB, 5.0 μM): 101%
activity at 7.5 µM (Aspergillus flavus, 2.5 min, 1% PDB, 7.5 μM): 95.8%
activity at 10 µM (Aspergillus flavus, 2.5 min, 1% PDB, 10.0 μM): 92.3%
minimal effective concentration (Aspergillus flavus, 5 min, read-out: lowest concentration with significant lethality): 7.5 µM and 9.3 µg/mL
activity at 2 µM (Aspergillus flavus, 5 min, 1% PDB, 2.0 μM): 89.2%
activity at 3 µM (Aspergillus flavus, 5 min, 1% PDB, 3.0 μM): 93%
activity at 4 µM (Aspergillus flavus, 5 min, 1% PDB, 4.0 μM): 83.8%
activity at 5 µM (Aspergillus flavus, 5 min, 1% PDB, 5.0 μM): 84.3%
activity at 7.5 µM (Aspergillus flavus, 5 min, 1% PDB, 7.5 μM): 79.9%
activity at 10 µM (Aspergillus flavus, 5 min, 1% PDB, 10.0 μM): 43.8%
activity at 2 µM (Aspergillus flavus, 10 min, 1% PDB, 2.0 μM): 102%
activity at 3 µM (Aspergillus flavus, 10 min, 1% PDB, 3.0 μM): 83.3%
activity at 4 µM (Aspergillus flavus, 10 min, 1% PDB, 4.0 μM): 89.7%
activity at 5 µM (Aspergillus flavus, 10 min, 1% PDB, 5.0 μM): 63.4%
activity at 7.5 µM (Aspergillus flavus, 10 min, 1% PDB, 7.5 μM): 24.7%
activity at 10 µM (Aspergillus flavus, 10 min, 1% PDB, 10.0 μM): 18.7%
minimal effective concentration (Aspergillus flavus, 10 min, 10 minutes post-incubation, 1% PDB, p=0.0001, read-out: concentration required for significant activity): 5 µM and 6.2 µg/mL
IC95 (Aspergillus flavus, 0.25 h, read-out: LD95): 10 µM and 12.4 µg/mL
activity at 2 µM (Aspergillus flavus, 0.25 h, 15 min, 1% PDB, 2.0 μM): 98.4%
activity at 3 µM (Aspergillus flavus, 0.25 h, 15 min, 1% PDB, 3.0 μM): 103%
activity at 4 µM (Aspergillus flavus, 0.25 h, 15 min, 1% PDB, 4.0 μM): 85.2%
activity at 5 µM (Aspergillus flavus, 0.25 h, 15 min, 1% PDB, 5.0 μM): 60.6%
activity at 7.5 µM (Aspergillus flavus, 0.25 h, 15 min, 1% PDB, 7.5 μM): 22%
activity at 10 µM (Aspergillus flavus, 0.25 h, 15 min, 1% PDB, 10.0 μM): 3.4%
activity at 2 µM (Aspergillus flavus, 20 min, 1% PDB, 2.0 μM): 98.9%
activity at 3 µM (Aspergillus flavus, 20 min, 1% PDB, 3.0 μM): 87%
activity at 4 µM (Aspergillus flavus, 20 min, 1% PDB, 4.0 μM): 68%
activity at 5 µM (Aspergillus flavus, 20 min, 1% PDB, 5.0 μM): 41.5%
activity at 7.5 µM (Aspergillus flavus, 20 min, 1% PDB, 7.5 μM): 8.6%
activity at 10 µM (Aspergillus flavus, 20 min, 1% PDB, 10.0 μM): 3.3%
activity at 2 µM (Aspergillus flavus, 0.5 h, 30 min, 1% PDB, 2.0 μM): 90.1%
activity at 3 µM (Aspergillus flavus, 0.5 h, 30 min, 1% PDB, 3.0 μM): 74.4%
activity at 4 µM (Aspergillus flavus, 0.5 h, 30 min, 1% PDB, 4.0 μM): 54.2%
activity at 5 µM (Aspergillus flavus, 0.5 h, 30 min, 1% PDB, 5.0 μM): 34.9%
activity at 7.5 µM (Aspergillus flavus, 0.5 h, 30 min, 1% PDB, 7.5 μM): 11%
activity at 10 µM (Aspergillus flavus, 0.5 h, 30 min, 1% PDB, 10.0 μM): 8.4%
